The source made the active and inactive calls.
Legend:
Type in all cases: functional, organism-based
Mus musculus [1] = assay: Hepatoprotective activity in CDAHFD induced C57BL/6N mouse liver injury model assessed as decrease in ALP level at 200 mg/kg,po qd administration for 4 weeks
Rattus norvegicus = assay: Antifibrotic activity in bile duct ligation induced Sprague-Dawley rat liver fibrosis model assessed as downregulation of TIMP1 mRNA expression at 200 mg/kg,po qd administration for 14 days by qRT-PCR analysis; conditions: time 14.0 day
Mus musculus [2] = assay: Anti-inflammatory activity in CDAHFD induced C57BL/6N mouse liver injury model assessed as downregulation of TNF-alpha mRNA expression in liver at 200 mg/kg,po qd administration for 4 weeks by qRT-PCR analysis
Mus musculus [3] = assay: Hepatoprotective activity in CDAHFD induced C57BL/6N mouse liver injury model assessed as reduction in fatty droplets at 200 mg/kg,po qd administration for 4 weeks by Oil red-O staining based microscopic analysis

Measured: Activity

COc1cc2c(cc1OC)-c1cc3ccc(OC)c(OCc4cccc(C)c4)c3c[n+]1CC2.[Br-]
active: all assays above

— ChEMBL document CHEMBL5385846, “Discovery and development of palmatine analogues as anti-NASH agents by activating farnesoid X receptor (FXR)” (Eur J Med Chem, 2023)
